The values below come from US4925855A, “Imidazole derivatives and antimycotics containing them” (CL Pharma Aktiengesellschaft, priority 1986, dated 1990).

Holding throughout (assay type): cell-based
One data set concerns Aspergillus fumigatus. As to the kind of experiment: MIC in serial dilution test, Aspergillus fumigatus. The note with it: 20160 min, pH 6. Here is the method:
(§1) The antimycotic activities of the compounds were measured by in vitro determination of the minimum inhibitory concentration (MIC) for yeasts, molds and dermatophytes.
(§2) 6 dermatophytes, 2 yeasts and 4 molds were used for testing with fungi, as follows:
Aspergillus fumigatus (Asp.fu.)
(§3) The minimum inhibitory concentration (MIC) was determined in serial dilution tests in test tubes. The volume of the liquid nutrient medium in each test tube was 4.5 ml.
(§4) The substances were dissolved in DMSO and diluted with sterile distilled water to 10 concentrations (100, 50, 25, 12.5, 6.25, 3.12, 1.56, 0.78, 0.39 and 0.19 μg/ml). 0.5 ml of each of these dilution steps was added to the liquid nutrient medium. Thus, a constant concentration of solvent in all the nutrient media was ensured, irrespective of the active compound concentration.
(§5) A comparison solution which contained only the solvent in appropriate concentration was included when carrying out each of the tests.
(§6) The individual strains were maintained on Sabouraud/beerwort agar slants and, before they were used in a test, they underwent a passage on a modified Sabouraud liquid nutrient medium. The strains were then harvested, washed and converted into a suspension of McFaerland 3 in the case of yeasts and molds and of McFaerland 4-5 in the case of dermatophytes.
(§7) The amount of material inoculated (inoculum) was 100 μl/test tube (inoculated densities: yeasts […] of the liquid nutrient medium was 6.0. After inoculation had taken place the fungi were incubated at 22° C. for 14 days.
(§8) The MIC was then determined. The concentration step at which growth was no longer visible on macroscopic inspection was used for the determination of the MIC. The comparison substance used was 1-(2-(2,4-dichlorophenyl)-2-(2,4-dichlorophenylmethoxy)ethyl)-1H-imidazoleas nitrate (compound A).

The test system of another data set is Microsporum canis. Description: MIC in serial dilution test, Microsporum canis. The note with it: 336 h, pH 6, Microsporum canis, pH 6.0, 22° C., 14 days, read-out: MIC values, Mi. can. Here is the method:
as §1, §2
Microsporum canis (Mi.can.)
as §3, §4, §5, §6, §7, §8

For another data set, the system named is Candida tropicalis. As to the kind of experiment: MIC in serial dilution test, Candida tropicalis. The note with it: 336 h, pH 6, Candida tropicalis, pH 6.0, 22° C., 14 days, read-out: MIC values, C. trop. Here is the method:
as §1, §2
Candida tropicalis (C.trop.)
as §3, §4, §5, §6, §7, §8

Molecules are shown by their SMILES. Values after ≈ are worked out from the molar mass of the structure shown.

Take `Clc1ccc(SCCCNC(Cn2ccnc2)c2ccc(Br)cc2)cc1` (stereo not drawn) [compound 11]: the “MIC values, Asp. fu.” value in the data set on Aspergillus fumigatus is 6,25 μg/ml.
For `Clc1ccc(C(Cn2ccnc2)NCCCSc2ccc(Br)cc2)c(Cl)c1` (stereo not drawn) [compound 24], in the data set on Aspergillus fumigatus, the “MIC values, Asp. fu.” value is 0,39 μg/ml.
With `Clc1ccc(SCCCNC(Cn2ccnc2)c2ccc(Cl)cc2Cl)cc1` (stereo not drawn) [compound 20, 1-(2-(2,4-Dichlorophenyl)-2-(3-(4-chlorophenylthio)-propylamino)ethyl)-1H-imidazole], in the data set on Aspergillus fumigatus, the “MIC values, Asp. fu.” value is on record as 3,12 μg/ml.
For `Clc1ccc(SCCNC(Cn2ccnc2)c2ccc(Cl)cc2Cl)cc1` (stereo not drawn) [compound 3], in the data set with Aspergillus fumigatus, the “MIC values, Asp. fu.” value is listed as 6,25 μg/ml.
On to `Clc1ccc(C(Cn2ccnc2)NCCCSc2ccc3ccccc3c2)c(Cl)c1` (stereo not drawn) [compound 27], for which the “MIC values, Asp. fu.” value in the data set with Aspergillus fumigatus is 0,78 μg/ml.
A word on the MIC: it is the least concentration at which growth counts as inhibited. `Clc1ccc(C(Cn2ccnc2)NCCCSc2ccc(Br)cc2)c(Cl)c1` (stereo not drawn) [compound 23, 1-(2-(2,4-dichlorophenyl)-2-(3-(4-bromophenylthio)propylamino)ethyl)-1H-imidazole]: the MIC in the data set with Microsporum canis and in the data set with Candida tropicalis was 1.56 µg/mL (≈ 3.21 µM) throughout. In addition, the “MIC values, Asp. fu.” value against Aspergillus fumigatus was 1,56 μg/ml.
In the case of `COc1ccc(SCCNC(Cn2ccnc2)c2ccc(Cl)cc2Cl)cc1` (stereo not drawn) [compound 5], the “MIC values, Asp. fu.” value in the data set on Aspergillus fumigatus is 12,5 μg/ml.
As for `Clc1ccc(C(Cn2ccnc2)NCCCSc2c(Cl)cccc2Cl)c(Cl)c1` (stereo not drawn) [compound 26], in the data set on Aspergillus fumigatus, the “MIC values, Asp. fu.” value is 12,5 μg/ml.
Still for that read-out and setting: in the case of `Clc1ccc(C(Cn2ccnc2)NCCSc2ccc(Br)cc2)c(Cl)c1` (stereo not drawn) [compound 4] it was 6,25 μg/ml; in that of `Clc1ccc(C(Cn2ccnc2)NCCCSc2ccccc2)c(Cl)c1` (stereo not drawn) [compound 16], 3,12 μg/ml.
